Where two headings read alike, the source gives them in different places.
Assays:
HT22 cells [1] = assay: In vitro ischemia assay (HT22 cell IAA assay, MTT); format: cell-based, mouse; settings: for EC50 / Emax: Mus musculus; for EC50: HT-22, HT22 cells; for Emax: HT-22, HT22 Cell IAA assay, read-out: Max Protection; for EC50 in vitro ischemia (μM): HT22 cells
Method: Cell viability was determined by a modified version of 3-(4,5-dimethylthiazol-2-yl)-2,5-diphenyl tetrazolium bromide (MTT) assay based on the standard procedure (Maher, et al., Brain Research. (2007), supra). Cells were seeded onto 96-well microtiter plates at a density of 5×10^3 cells per well. For the in vitro ischemia assay, the next day, the medium was replaced with DMEM supplemented with 7.5% DFCS and the cells were treated with 20 μM iodoacetic acid (IAA) alone or in the presence of the different derivatives. After 2 hr the medium in each well was aspirated and replaced with fresh medium without IAA but containing the derivatives. 20 hr later, the medium in each well was aspirated and replaced with fresh medium containing 2.5 μg/ml MTT. After 4 hr of incubation at 37° C., the cells were solubilized with 100 μl of a solution containing 50% dimethylformamide and 20% SDS (pH 4.7). The absorbance at 570 nm was measured on the following day with a microplate reader (Molecular Devices). Results were confirmed by visual inspection of the wells. Controls included compound alone to test for toxicity and compound with no cells to test for interference with the assay chemistry.
For a primary screen, an in vitro ischemia model in combination with the HT22 nerve cell line (Maher, et al., Brain Research. (2007) 1173, 117-125) was chosen. […] To induce ischemia in the HT22 cells we used iodoacetic acid (IAA), a well-known, irreversible inhibitor of the glycolytic enzyme glyceraldehyde 3-phosphate dehydrogenase (G3PDH) (Winkler, et al., Exp. Eye Res. (2003) 76, 715-723). IAA has been used in a number of other studies to induce ischemia in nerve cells (Reshef, et al., Neurosci. Lett. (1997) 238, 37-40; Sperling, et al., Neursci. Lett. (2003) 351, 137-140; Rego, et al., Neurochem. Res. (1999) 24, 351-358; Sigalov, et al., J. Mol. Neurosci. (2000) 15, 147-154; and Reiner, et al., Neurosci. Lett. (1990) 119, 175-178), including several recent screens for neuroprotective molecules (Biraboneye, et al., J. Med. Chem. (2009) 52 (14), 4358-4369; Biraboneye, et al., Chem. Med. Chem. (2010) 5 (1), 79-85). The changes following IAA treatment of neural cells are very similar to those seen in animal models of ischemic stroke (Lipton, et al., Physiol. Rev. (1999) 79, 1431-1568) and include alterations in membrane potential (Reiner, et al., Neurosci. Lett. (1990) 119, 175-178), breakdown of phospholipids (Taylor, et al., J. Pharmacol. Exp. Ther. (1996) 276, 1224-1231), loss of ATP (Winkler, et al., Exp. Eye Res. (2003) 76, 715-723; Sperling, et al., Neursci. Lett. (2003) 351, 137-140) and an increase in reactive oxygen species (ROS) (Taylor, et al., J. Pharmacol. Exp. Ther. (1996), supra; and Sperling, et al., Neursci. Lett. (2003) 351, 137-140).
(§1) Cell viability was determined after 24 hr by the MTT assay. The ability to maintain GSH (GSH) was determined by treating HT22 cells with different doses of each derivative (1-10 μM) in the presence of 5 mM glutamate. After 24 hr cell extracts were prepared and analyzed for total GSH. Fisetin (10 μM) was used as a positive control. The ability to induce PC12 cell differentiation (PC 12 diff' n) was determined by treating PC12 cells in N2 medium with different doses of each derivative (1-10 μM) for 24 hr. Differentiation was assessed by visual inspection with Fisetin (10 μM) as a positive control. Anti-inflammatory activity (microglia) was assessed in N9 microglial cells treated with bacterial lipopolysaccharide alone or in the presence different doses of each derivative (1-10 μM) for 24 hr. Fisetin was used as a positive control. TEAC values, a measure of direct antioxidant activity, were determined using the ABTS decolorization assay.
For rapid screening of chemical libraries, a mouse HT22 hippocampal cell death assay induced by addition of the compound iodoacetic acid (IAA) was used. IAA is a well-known, irreversible inhibitor of the glycolytic enzyme glyceraldehyde 3-phosphate dehydrogenase (G3PDH). […]

HT22 cells [2] = assay: Maintenance of total GSH in the presence of glutamate; format: cell-based, mouse; settings: derivative 1-10 μM, 5 mM glutamate, 24 hr
Method: Total intracellular glutathione was determined by a chemical assay as described (Maher, P. et al., Free Radical Research. (2006) 40 (10), 1105-1111).
(§2) Three secondary screens allowed assessment of three key activities of Fisetin that are highly relevant to stroke, as well as other neurological disorders: maintenance of glutathione (GSH), the major endogenous cellular antioxidant, inhibition of LPS-induced microglial activation, an indicator of anti-inflammatory activity and PC 12 cell differentiation, a measure of neurotrophic activity. All of these activities are relevant to the nerve cell loss seen in stroke (Gelderblom, et al., Stroke. 2009, 40 (5), 1849-1857; Pandya, et al., Cent. Nerv. Syst. Agents. Med. Chem. (2011) April 27; Lewerenz, et al., J. Neurochem. (2010) 113 (2), 502-504). […] To assess GSH maintenance, total intracellular GSH levels after a 24 hr treatment with the compound both in the absence and presence of glutamate, an inducer of GSH loss and oxidative stress (Tan, et al., Curr. Top. Med. Chem. (2001) 1, 497-506; Maher, et al., Free Radical Research. (2006) 40 (10), 1105-1111) was measured. Inhibition of LPS-induced microglial activation was determined by treating N9 mouse microglial cells with LPS alone and in the presence of the compounds and assaying NO release into the medium 24 hr later (Zheng, et al., Int. Immunopharmacol. (2008) 8, (3), 484-494). PC12 cell differentiation was determined by treating PC12 cells with the compounds and looking at neurite outgrowth after 24 hr. In all cases, Fisetin was used as a positive control (Sagara, et al., J. Neurochem. (2004) 90, 1144-1155).
as §1

PC12 cells = assay: PC12 cell differentiation (neurite outgrowth); format: cell-based; settings: N2 medium, derivative 1-10 μM, 24 hr, visual inspection
Method: PC 12 cells in N2 medium were treated with the derivatives (1-10 μM) or Fisetin (10 μM) as a positive control for 24 hr at which time the cells were scored for the presence of neurites. PC12 cells produce neurites much more rapidly when treated in N2 medium than when treated in regular growth medium. For each treatment, 100 cells in each of three separate fields were counted. Cells were scored positive if one or more neurites>1 cell body diameter in length were observed.
as §2, §1

[3] = TEAC, ABTS decolorization assay; settings: relative to Trolox
Method: TEAC values for the flavonoids were determined as described (Maher, P. et al., Free Radical Research. (2006), supra). Briefly, 250 μl of 2,2′-azinobis(3-ethylbenzothiazoline 6-sulfonate) (ABTS) treated overnight with potassium persulfate and diluted to an OD of ˜0.7 at 734 nm was added to 2.5 μl of a derivative solution in ethanol. The change in absorbance due to the reduction of the ABTS radical cation was measured at 734 nm for 4 min. To calculate the TEAC, the gradient of the plot of the percentage inhibition of absorbance vs. concentration for the derivative in question was divided by the gradient of the plot for Trolox.
as §1

[4] = 20 μM IAA for 2 hr, viability after 24 hr by MTT, read-out: EC50 in vitro ischemia
[5] = 20 μM IAA, read-out: HT22 Cell IAA assay EC50
[6] = 20 μM IAA for 2 hr, viability after 24 hr by MTT

Compound | EC50 (HT22 cells [1]; [4]) | fold enhancement of neuroprotective activity relative to CMS-027 (HT22 cells [1]; in vitro ischemia, HT22/IAA) | GSH (ability to maintain GSH) (HT22 cells [2]) | PC12 diff'n (ability to induce PC12 cell differentiation) (PC12 cells) | TEAC [3] | EC50 (HT22 cells [1]; [5]) | Emax (HT22 cells [1]) | EC50 in vitro ischemia (μM) (HT22 cells [1]; [6]) | fold improvement of neuroprotective activity/potency relative to Fisetin (HT22 cells [1]; in vitro ischemia, HT22/IAA)
Cc1cc2oc(-c3ccc(O)c(O)c3)cc(=O)c2cc1C [CMS-028, 2-(3,4-dihydroxyphenyl)-6,7-dimethyl-4H-chromen-4-one] | 250 nM | 2 fold | no | no | 0.27 |  |  |  | 
O=c1c(O)c(-c2ccc(N3CCCC3)cc2)oc2c1ccc1ccccc12 [CMS-114, 3-hydroxy-2-(4-(pyrrolidin-1-yl)phenyl)-4H-benzo[h]chromen-4-one] | 70 nM |  | no | yes | 1.44 | 71 nM | 74% |  | 
COc1cc(-c2ccc(O)cc2)nc2ccccc12 [CMS-022, 4-methoxy-2-(4-hydroxyphenyl)quinoline] |  |  | no | no | 0.81 |  |  | no | 
Cc1cc(O)c(C(=O)/C=C/c2ccc(O)cc2O)cc1C [CMS-087, (E)-3-(2,4-dihydroxyphenyl)-1-(2-hydroxy-4,5-dimethylphenyl)prop-2-en-1-one] | 50 nM |  | no | yes | 0.93 |  |  |  | 
CN(C)c1ccc(-c2cc(=O)c3ccc4ccccc4c3o2)cc1 [CMS-120, 2-(4-(dimethylamino)phenyl)-4H-benzo[h]chromen-4-one] | 250 nM |  | no | no | 0.24 |  |  |  | 
Cc1cc2oc(-c3ccc(O)cc3O)c(O)c(=O)c2cc1C [CMS-093, 2-(2,4-dihydroxyphenyl)-3-hydroxy-6,7-dimethyl-4H-chromen-4-one] | > 500 nM |  | no | no | 1.56 |  |  |  | 
COc1cc(-c2oc3c(ccc4ccccc43)c(=O)c2O)ccc1OCc1ccccc1 [CMS-065, 2-(4-(benzyloxy)-3-methoxyphenyl)-3-hydroxy-4H-benzo[h]chromen-4-one] | 80 nM |  | no | yes | 0 | 81 nM |  |  | 
O=c1cc(-c2ccc(O)c(O)c2)oc2c1ccc1ccccc12 [CMS-02P, reference compound] | 80 nM |  | no | yes | 0.18 | ≤ 100 nM | 86% |  | ~40 fold
COc1cc(-c2ccccc2)nc2ccccc12 [CMS-021, 4-methoxy-2-phenylquinoline] | 750 nM |  | no | no | 0.12 |  |  |  | 
COc1cc(-c2oc3c(ccc4ccccc43)c(=O)c2O)ccc1O [CMS-070, 3-hydroxy-2-(4-hydroxy-3-methoxyphenyl)-4H-benzo[h]chromen-4-one] | > 500 nM |  | no | yes | 0.63 |  |  |  | 
CC(C)Oc1cc(-c2ccc(O)cc2O)nc2ccccc12 [CMS-084, 4-isopropoxy-2-(2,4-dihydroxyphenyl) quinoline] | 210 nM |  | no | no | 0.27 | 210 nM |  |  | 
CC(C)Oc1cc(-c2ccc(N3CCCC3)cc2)nc2ccccc12 [CMS-113, 4-isopropoxy-2-(4-(pyrrolidin-1-yl)phenyl)quinoline] | 500 nM |  | no | no | 0.27 |  |  |  | 
CCOc1ccc(/C=C/C(=O)c2cc(C)c(C)cc2O)cc1OCC [CMS-013, (E)-3-(3,4-diethoxyphenyl)-1-(2-hydroxy-4,5-dimethylphenyl)prop-2-en-1-one] |  |  | no | no | 0.09 |  |  | no | 
COc1cc(-c2ccc([N+](=O)[O-])c(O)c2)nc2ccccc12 [CMS-111, 4-methoxy-2-(3-hydroxy-4-nitrophenyl)quinoline] |  |  | no | no | 0.18 |  |  | no | 
CCOc1ccc(-c2cc(=O)c3ccc4ccccc4c3o2)cc1OCC [CMS-038, 2-(3,4-diethoxyphenyl)-4H-benzo[h]chromen-4-one] |  |  | no | no | 0.2 |  |  | no | 

— patent US20140186329A1, “POLYPHENOL ANALOGS TO TREAT ISCHEMIA” (priority 2011, published 2014)
